Test results reported in PubChem BioAssay (NCI).
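Compound exposure: 48 hours, 5 concentrations, 96-well plates. GI50 = concentration required for 50% inhibition of growth. At the TGI there is no net growth.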

How the values were obtained:
Assay in all cases: growth of human tumour cells (NCI), 48 h
COLO 205 colon = system: COLO 205 colon
NCI-H23 lung = system: NCI-H23 lung
SNB-78 CNS = system: SNB-78 CNS
UO-31 renal = system: UO-31 renal
M14 melanoma = system: M14 melanoma
DMS 273 small cell lung = system: DMS 273 small cell lung
CCRF-CEM leukemia = system: CCRF-CEM leukemia
T-47D breast = system: T-47D breast
RPMI-8226 leukemia = system: RPMI-8226 leukemia
XF 498 CNS = system: XF 498 CNS

Structure (SMILES)	TGI (COLO 205 colon)	TGI (NCI-H23 lung)	TGI (SNB-78 CNS)	TGI (UO-31 renal)	TGI (M14 melanoma)	TGI (DMS 273 small cell lung)	TGI (CCRF-CEM leukemia)	GI50 (T-47D breast)	TGI (T-47D breast)	GI50 (COLO 205 colon)	GI50 (NCI-H23 lung)	GI50 (RPMI-8226 leukemia)	TGI (RPMI-8226 leukemia)	GI50 (UO-31 renal)	GI50 (M14 melanoma)	GI50 (CCRF-CEM leukemia)	TGI (XF 498 CNS)
O=C(Cc1nc2ccccc2c(=O)n1-c1ccccc1Cl)c1ccncc1	> 100 µM	> 100 µM	> 100 µM	> 100 µM	> 100 µM	> 100 µM	> 100 µM										
O=C1/C(=C/c2cccc(Br)c2)COc2ccc(O)cc21	11.1 µM	15.6 µM		3.46 µM	12.3 µM		1.88 µM	2.18 µM	6.28 µM	3.33 µM	3.79 µM	0.26 µM	0.761 µM	1.51 µM	3.42 µM	0.285 µM	
CC1=Nc2c(ccc3c2C(=O)c2ccccc2C3=O)NC(c2cccc3c2CCC3)C1 (stereo not given)	> 100 µM	> 100 µM	> 100 µM	> 100 µM	> 100 µM	> 100 µM	> 100 µM						> 100 µM				> 100 µM
CCNc1cc(-c2cccc(OC(F)(F)F)c2)nc2ccc(N3CCCC3)cc12	4.21 µM	4.47 µM		2.71 µM	3.28 µM		8.69 µM	2.11 µM	7.06 µM	1.8 µM	1.84 µM	1.34 µM	3.92 µM	1.36 µM	1.64 µM	2.04 µM	
COc1ccc(NC(=O)CC2SC(=Nc3ccccc3C)NC2=O)c([N+](=O)[O-])c1 (stereo not given)	> 100 µM	> 100 µM	> 100 µM	> 100 µM	> 100 µM	> 100 µM							> 100 µM				> 100 µM
CCOC(=O)C(=O)Nc1ccccc1C	> 100 µM	> 100 µM	> 100 µM	> 100 µM	> 100 µM		> 100 µM						> 100 µM				87.9 µM
CCCNC(=O)C1C(=O)C(=O)N(CCC)C1=O (stereo not given)	> 100 µM	> 100 µM	> 100 µM	> 100 µM	> 100 µM	> 100 µM	> 100 µM						> 100 µM				> 100 µM
CC(C)CCC[C@@H](C)[C@H]1CC[C@H]2[C@@H]3CC[C@H]4C[C@@H](CCC=C(c5cc(Cl)c(O)c(C(=O)O)c5)c5cc(Cl)c(O)c(C(=O)O)c5)CC[C@]4(C)[C@H]3CC[C@]12C	> 100 µM	> 100 µM		> 100 µM	> 100 µM		> 100 µM		> 100 µM				> 100 µM				
COC12CCC(=O)C=C1c1ccccc1N2C(C)=O (stereo not given)	> 100 µM	> 100 µM	> 100 µM	> 100 µM		> 100 µM	> 100 µM						> 100 µM				> 100 µM
Cc1nc(-c2ccccc2)n2nc(NCCCN3CCOCC3)ncc12	> 25 µM	> 25 µM		24.4 µM	> 25 µM		> 25 µM	> 25 µM	> 25 µM	19.1 µM	> 25 µM	> 25 µM	> 25 µM	4.48 µM	16.5 µM	> 25 µM	
CC[n+]1oc(C(=O)c2ccc(Cl)cc2)c(-c2ccccc2)c1-c1ccccc1.[Cl][Fe]([Cl])([Cl])[Cl]	> 100 µM	> 100 µM		21.5 µM	> 100 µM		39.4 µM	0.462 µM	35.1 µM	50.7 µM	45.7 µM	19.6 µM	54.2 µM	2.23 µM	52.5 µM	14.8 µM	
CC(Oc1ccc2c(-c3ccccc3)cc(=O)oc2c1)C(=O)O (stereo not given)	> 100 µM	> 100 µM	> 100 µM	> 100 µM	> 100 µM		> 100 µM										> 100 µM
Cc1ccccc1NC(=O)c1cc(-c2ccc([N+](=O)[O-])cc2)nc(=S)[nH]1	> 100 µM	> 100 µM	> 100 µM	> 100 µM	> 100 µM	> 100 µM											
COC/C=C\COC	> 100 µM		> 100 µM	> 100 µM	> 100 µM	> 100 µM	> 100 µM						> 100 µM				> 100 µM
NCCSSCCN	> 100 µM	> 100 µM	> 100 µM	> 100 µM	> 100 µM	> 100 µM	> 100 µM		> 100 µM				> 100 µM				> 100 µM
Cc1ccc(NC(=O)CCc2nc(N)nc(N)c2-c2ccccc2)cc1C	> 100 µM	> 100 µM	> 100 µM	> 100 µM	> 100 µM	> 100 µM	> 100 µM						> 100 µM				> 100 µM
N#Cc1ccccc1C(Cl)(Cl)c1cnccn1	> 100 µM	> 100 µM	> 100 µM	> 100 µM		> 100 µM	50.3 µM										33.8 µM
CCCCCCCCCCCCCCCCCC1=NC(C)(C)CN1CC(C)O (stereo not given)	6.61 µM	27.1 µM		29.4 µM	5.77 µM		7.39 µM	6.58 µM	28 µM	2.5 µM	12.7 µM	14.4 µM	36 µM	13.8 µM	2.29 µM	2.71 µM	
N/N=C1\C(=O)N(C2CCCCCC2)C(=O)C1C(=O)NC1CCCCCC1 (stereo not given)	> 100 µM	52.1 µM	77.3 µM	42 µM	> 100 µM		80.8 µM										
COc1ccc(C(c2c(O)c3ccccc3n(-c3ccccc3)c2=O)c2c(O)c3ccccc3n(-c3ccccc3)c2=O)cc1	> 100 µM	> 100 µM	> 100 µM	> 100 µM		> 100 µM	> 100 µM						> 100 µM				> 100 µM
COc1ccc(OC)c(NC(=O)CCC/C(CC(=O)c2ccc(O)c(OC)c2)=N\Nc2nnc(C)n2N)c1	> 100 µM	> 100 µM		> 100 µM	> 100 µM	> 100 µM	> 100 µM						> 100 µM				> 100 µM
